# Columns and labels:
# [1] = tested on: Glioblastoma multiforme 3D aggregates (Glioblastoma 1); assay: Annexin V-PI flow cytometry of drug-treated Glioblastoma 1 3D aggregates; assay type: cell-based, human
# Description: Two, freshly resected, native samples reached the laboratory directly from the pathologist within 2 hours of surgery. The two samples were treated separately and were labelled as “Glioblastoma 1” and “Glioblastoma 2”. […] The samples were processed according to protocol and drug sensitivity tests were performed using the viable, Sample 1. Samples for DNA and RNA isolation were also stored at −80° C., leaving the opportunity open for additional sequencing or comparative gene expression studies. Traditional out-growth cultures were also prepared from Glioblastoma sample 1 showing the strong viability and proliferative ability of the cells (FIG. 1.). Annexin: Annexin V is used as a non-quantitative probe to detect cells that express phosphatidylserine (PS) on their cell surface, an event found in apoptosis as well as other forms of cell death. The assay combines annexin V staining of PS and PE membrane events with the staining of DNA in the cell nucleus with propidium iodide (PI) or 7-Aminoactinomycin D (AAD-7), distinguishing viable cells from apoptotic cells and necrotic cells. Detection was performed by flow cytometry or a fluorescence microscope. […] Erbitux (Cetuximab): 4.8 mg/ml; […] Erlotinib similarly to Cetuximab is an EGFR inhibitor (the two drugs are frequently used clinically together).
# [2] = tested on: Glioblastoma multiforme 3D aggregates; assay: CellTiter-Glo 3D Cell Viability Assay, glioblastoma drug sensitivity test; assay type: cell-based, human; conditions: BCNU 0.3, 0.03, 0.003 mg/ml, FIGS. 3 & 4
# Description: Toxicology assay: CellTiter-Glo® 3D Cell Viability Assay (Promega). The CellTiter-Glo® 3D Cell Viability Assay is a homogeneous, luminescent method to determine the number of viable cells in 3D cell culture based on quantitation of the ATP present, which is a marker for the presence of metabolically active cells.
# Aggregates were prepared in 96-well plates and cultures were incubated with the following agents: cisplatin, erlotinib, vinorelbine, and pemetrexed. […] Following 24, 48 h or 72 h incubation, cells were labelled using Annexin V-PI and analyzed by flow cytometry or analysed by Promega CellTiter-Glo® 3D Cell Viability Assay Kit (Luminescent) (ATP detection kit)(FIGS. 3 & 4).
# glioblastoma tumour = assay: Treatment of the glioblastoma patient; assay type: in vivo, human
# Description: The patient was treated with BCNU and the tumour was regressing within 2 weeks after the first administration of the drug.
compound,measurement,setting,value
CCC1=C[C@@H]2CN(C1)Cc1c([nH]c3ccccc13)[C@@](C(=O)OC)(c1cc3c(cc1OC)N(C)[C@H]1[C@@](O)(C(=O)OC)[C@H](OC(C)=O)[C@]4(CC)C=CCN5CC[C@]31[C@@H]54)C2 [Vinorelbine],Annexin Pl++ Late apoptosis,[1]; 20 nM,0.49%
same,Pl+ ratio within Annexin+ Non-viable,[1]; 20 nM,0.93%
same,Annexin Pl++ Late apoptosis,[1]; 50 nM,0.05%
same,Pl+ ratio within Annexin+ Non-viable,[1]; 50 nM,0.09%
N.N.[Cl][Pt][Cl] [Cisplatin],Annexin Pl++ Late apoptosis,[1]; 9 μg/m1,0.19%
same,Pl+ ratio within Annexin+ Non-viable,[1]; 9 μg/m1,0.44%
C#Cc1cccc(Nc2ncnc3cc(OCCOC)c(OCCOC)cc23)c1 [Erlotinib],Annexin Pl++ Late apoptosis,[1]; 1 μM,0.32%
same,Pl+ ratio within Annexin+ Non-viable,[1]; 1 μM,0.62%
Nc1nc2[nH]cc(CCc3ccc(C(=O)N[C@@H](CCC(=O)O)C(=O)O)cc3)c2c(=O)[nH]1 [Pemetrexed],Annexin Pl++ Late apoptosis,[1]; 1 μM,0.19%
same,Pl+ ratio within Annexin+ Non-viable,[1]; 1 μM,0.37%
"O=NN(CCCl)C(=O)NCCCl [BCNU, Carmustine]",sensitivity of the glioblastoma cells,[2],clearly confirmed sensitivity
same,time to tumour regressing after the first administration of the drug,glioblastoma tumour,≤ 2 weeks
